The source of these data is patent US10590100B2, “Benzofuran derivatives for the treatment of CNS and other disorders” (WARNER BABCOCK INSTITUTE FOR GREEN CHEMISTRY, priority 2015, dated 2020).

Type in all cases: biochemical
Assay [1] concerns the target T1, zinc-independent Aβ42 aggregates (Homo sapiens, UniProt P05067).
T1 construct: 15 μM Aβ42 peptide in TrisHCl—NaCl buffer
Put plainly: Bis-ANS fluorescence assay of disaggregation of zinc-independent Aβ42 aggregates. As to conditions: for EC50: Aβ42 15 μM, bis-ANS 15 μM, Tris-buffered saline, without Zn2+; for Change in bis-ANS fluorescence after addition of compound to zinc-independent Aβ42 aggregates: 15 μM Aβ42, no Zn2+, compound at 60.0 to 0.234 μM (FIG. 2). As to the method: Bis-ANS was used as a fluorescent marker for Aβ42 aggregation and disaggregation so as to determine the efficacy, EC50, of each test compound in the presence or absence of zinc(II). Baseline fluorescence was established by monitoring the fluorescence of 15 μM bis-ANS in a TrisHCl-NaCl buffer (TrisHCl-NaCl buffer: 0.50 mM TrisHCl, 1.50 mM NaCl, pH 7.4) that contains 15 μM Aβ42. After 5 minutes, Zn(II) (as zinc(II) sulfate, 15 μM final concentration) was added to the Aβ42 solution, and the fluorescence intensity monitored for 24-40 minutes. Fluorescence increases following the addition of Zn(II) during the aggregation period. After the aggregation period, varying concentrations (60, 15, 3.75, 0.938, 0.234, or 0 μM final concentration) of a test compound were added, and the fluorescence intensity again monitored until it plateaus, typically 20-24 min. […] Fluorescence intensities were determined at 390 nm excitation wavelength/490 nm emission wavelength with a 475 nm cutoff. […] The responses I0-If, were calculated as the difference in the final fluorescent intensity If, c at the end of the assay for each concentration as compared to the final intensity I0 determined for the sample with no added derivative. The responses were normalized to the maximum response […] which is the final fluorescent intensity of the sample containing 60 μM test compound, Normalized response=(I0-If)/(I0-[…]). The fluorescent intensities were then fit to a 4-parameter sigmoidal logistic function to determine EC50. A representative example of disaggregation of spontaneously formed, zinc-independent Aβ42 aggregates by a test compound, BC-147, is given in FIG. 2. In the absence of zinc(II), soluble Aβ42 undergoes zinc-independent aggregation more slowly than aggregation in the presence of zinc(II). This spontaneous, zinc-independent aggregation of Aβ42 is detected by an increase in bis-ANS fluorescence. […] FIG. 2 depicts the disaggregation by BC-147 of the spontaneously formed, zinc-independent Aβ42 aggregates.

In assay [2] the target is T2, zinc-induced Aβ42 aggregates (Homo sapiens, UniProt P05067).
T2 construct: 15 μM Aβ42 peptide in TrisHCl—NaCl buffer
Put plainly: Bis-ANS fluorescence assay of disaggregation of zinc-induced Aβ42 aggregates. As to conditions: for EC50: Aβ42 15 μM, bis-ANS 15 μM, Tris-buffered saline, with 15 μM Zn2+. As to the method: Bis-ANS was used as a fluorescent marker for Aβ42 aggregation and disaggregation so as to determine the efficacy, EC50, of each test compound in the presence or absence of zinc(II). Baseline fluorescence was established by monitoring the fluorescence of 15 μM bis-ANS in a TrisHCl-NaCl buffer (TrisHCl-NaCl buffer: 0.50 mM TrisHCl, 1.50 mM NaCl, pH 7.4) that contains 15 μM Aβ42. After 5 minutes, Zn(II) (as zinc(II) sulfate, 15 μM final concentration) was added to the Aβ42 solution, and the fluorescence intensity monitored for 24-40 minutes. Fluorescence increases following the addition of Zn(II) during the aggregation period. After the aggregation period, varying concentrations (60, 15, 3.75, 0.938, 0.234, or 0 μM final concentration) of a test compound were added, and the fluorescence intensity again monitored until it plateaus, typically 20-24 min. […] Fluorescence intensities were determined at 390 nm excitation wavelength/490 nm emission wavelength with a 475 nm cutoff. […] The responses I0-If, were calculated as the difference in the final fluorescent intensity If, c at the end of the assay for each concentration as compared to the final intensity I0 determined for the sample with no added derivative. The responses were normalized to the maximum response […] which is the final fluorescent intensity of the sample containing 60 μM test compound, Normalized response=(I0-If)/(I0-[…]). The fluorescent intensities were then fit to a 4-parameter sigmoidal logistic function to determine EC50. In the presence of soluble Aβ42, zinc(II) induces aggregation within milliseconds. This aggregation is detected by an increase in bis-ANS fluorescence. Disaggregation of zinc-dependent aggregates can be detected by a decrease in the fluorescence of bis-ANS in the assay. FIG. 1 depicts the zinc(II) induced Aβ42 aggregation and the disaggregation by BC-147 of the zinc-induced aggregates, measured by bis-ANS fluorescence assay.

Another assay addresses T3, amylin aggregates (Homo sapiens, UniProt P10997).
T3 construct: Amylin (15 μM) in TrisHCl—NaCl buffer was allowed to aggregate for 24 hr
T3 sequence (P10997 34-70 limits assumed): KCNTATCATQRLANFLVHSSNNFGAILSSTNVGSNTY
Put plainly: Bis-ANS fluorescence assay of disaggregation of amylin aggregates. As to conditions: 15 μM amylin; for EC50: bis-ANS 15 μM, Tris-buffered saline, compound added after 24 hr aggregation. As to the method:
Amylin (15 μM) in TrisHCl—NaCl buffer was allowed to aggregate for 24 hr, while monitoring the fluorescence of bis-ANS (15 μM) as a marker of amylin aggregation. Typically, the fluorescence increases during the aggregation period. After the aggregation period, varying concentrations (60, 15, 3.75, 0.938, 0.234, or 0 μM final concentration) of a test compound were then added to the sample, and the fluorescence intensity monitored until it plateaus, typically an additional 20-24 hr. Controls were simultaneously run in which the test compound was added to a sample that contained Bis-ANS but no amylin so as to determine any interfering intrinsic fluorescence of the test compound itself (see Table 1).
A series of assays was also carried out so as to determine the EC50 for EGCG, by addition of 60, 15, 3.75, 0.938, 0.234, or 0 μM EGCG after 24 hours, similarly to the methods used to assay the test compounds.

T1 sequence (P05067 672-713 limits assumed): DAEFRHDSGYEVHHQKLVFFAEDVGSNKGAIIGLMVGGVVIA
T2 sequence (P05067 672-713 limits assumed): as above

In general, EC50 refers to the concentration giving half of the maximal effect. Regarding `N#CC(=Cc1ccc2cc(-c3ccc(N(c4ccccc4)c4ccccc4)cc3)oc2c1)C(N)=O` [BC-152, 2-cyano-3-(2-(4-(diphenylamino)phenyl)benzofuran-6-yl)acrylamide], the values for the EC50 (in assay [1]; in assay [2]; on amylin aggregates) were 1.11 µM, 2.7 µM and 0.8 µM, respectively.
The molecule `N#CC(=Cc1ccc2cc(-c3ccc(N4CCCCC4)cc3)oc2c1)C(=O)O` [BC-166, 2-cyano-3-(2-(4-(piperidin-1-yl)phenyl)benzofuran-6-yl)acrylic acid] had an EC50 on amylin aggregates of 0.61 µM.
For the molecule `N#CC(=Cc1ccc2cc(-c3ccc(N(c4ccccc4)c4ccccc4)cc3)oc2c1)C(=O)O` [BC-149, 2-cyano-3-(2-(4-(diphenylamino)phenyl)benzofuran-6-yl)acrylic acid], the EC50 amounted to 0.5 µM in assay [1], 0.66 µM in assay [2] and 0.15 µM on amylin aggregates.
Taken in the same sequence, the figures for `COc1ccc(N(c2ccc(OC)cc2)c2ccc(-c3cc4ccc(C=C(C#N)C(=O)O)cc4o3)cc2)cc1` [BC-156, 3-(2-(4-(bis(4-methoxyphenyl)amino)phenyl)benzofuran-6-yl)-2-cyanoacrylic acid] were 3.01 µM, 1.71 µM and 0.31 µM.
On to `CC(C)(C)c1ccc(N(c2ccc(-c3cc4ccc(C=C(C#N)C(=O)O)cc4o3)cc2)c2ccc(C(C)(C)C)cc2)cc1` [BC-158, 3-(2-(4-(bis(4-(tert-butyl)phenyl)amino)phenyl)benzofuran-6-yl)-2-cyanoacrylic acid], for which, at amylin aggregates, it took 1.73 µM to reach a half-maximal effect (EC50). The “Change in bis-ANS fluorescence after addition of compound to amylin aggregates” value on amylin aggregates (compound at 60.0, 15.0, 3.75, 0.938 or 0.234 μM added at about 1440 min (FIG. 5)) is “decrease in bis-ANS fluorescence”.
In the case of `N#CC(=Cc1ccc2cc(-c3ccc(N4CCOCC4)cc3)oc2c1)C(=O)O` [BC-169, 2-cyano-3-(2-(4-morpholinophenyl)benzofuran-6-yl)acrylic acid], the EC50 on amylin aggregates was determined as 0.84 µM.
As for `NC(=O)C(=Cc1ccc2cc(-c3ccc(N(c4ccccc4)c4ccccc4)cc3)oc2c1)C(N)=O` [BC-155, 2-((2-(4-(diphenylamino)phenyl)benzofuran-6-yl)methylene)malonamide], the EC50 in assay [1] came out at 0.46 µM; in assay [2], 1.09 µM; on amylin aggregates, 0.18 µM.
As to `CCN(CC)c1ccc(-c2cc3ccc(C=C(C#N)C(=O)O)cc3o2)cc1` [BC-173, 2-cyano-3-(2-(4-(diethylamino)phenyl)benzofuran-6-yl)acrylic acid], the EC50 at amylin aggregates is 0.21 µM.
For the molecule `N#CC(=Cc1cc2ccc(N(c3ccccc3)c3ccccc3)cc2o1)C(=O)O` [BC-146, 2-cyano-3-(6-(diphenylamino)benzofuran-2-yl)acrylic acid], the EC50 in assay [1] is 4.9 µM; in assay [2], 0.54 µM; at amylin aggregates, 0.52 µM.
In the same order, the values of `COC(=O)C(C#N)=Cc1ccc2cc(-c3ccc(N(c4ccccc4)c4ccccc4)cc3)oc2c1` [BC-161, methyl 2-cyano-3-(2-(4-(diphenylamino)phenyl)benzofuran-6-yl)acrylate] are 3.22 µM, 4.12 µM and 2.54 µM.
For `N#CC(=Cc1ccc(-c2cc3ccc(N(c4ccccc4)c4ccccc4)cc3o2)cc1)C(=O)O` [BC-147, 2-cyano-3-(4-(6-(diphenylamino)benzofuran-2-yl)phenyl)acrylic acid], the “Change in bis-ANS fluorescence after addition of compound to zinc-independent Aβ42 aggregates” value in assay [1] is given as “decrease in bis-ANS fluorescence”. Also, the EC50 in assay [1] was determined as 11.5 µM; in assay [2] it was 3.76 µM; on amylin aggregates it was 0.19 µM. The “Change in bis-ANS fluorescence after addition of compound to zinc-induced Aβ42 aggregates” value in assay [2] (15 μM Aβ42, 15 μM Zn2+, compound at 60.0, 15.0, 3.75, 0.938 or 0.234 μM (FIG. 1)) was “decrease in bis-ANS fluorescence”.
Consider `O=C(O[C@@H]1Cc2c(O)cc(O)cc2O[C@@H]1c1cc(O)c(O)c(O)c1)c1cc(O)c(O)c(O)c1` [EGCG, Epigallocatechin gallate, reference compound], for which, at amylin aggregates, the EC50 amounted to 0.86 µM.
With `N#CC(=Cc1ccc2cc(-c3ccc(N(c4cccnc4)c4cccnc4)cc3)oc2c1)C(=O)O` [BC-159, 2-cyano-3-(2-(4-(di(pyridin-3-yl)amino)phenyl)benzofuran-6-yl)acrylic acid], the EC50 in assay [1] was found to be 5.59 µM; in assay [2], 2.22 µM; on amylin aggregates it was 1.93 µM.
Consider `CN(c1ccccc1)c1ccc(-c2cc3ccc(C=C(C#N)C(=O)O)cc3o2)cc1` [BC-175, 2-cyano-3-(2-(4-(methyl(phenyl)amino)phenyl)benzofuran-6-yl)acrylic acid], for which the EC50 on amylin aggregates was found to be 0.14 µM.
Take `N#CC(=Cc1ccc2cc(-c3ccc(N(c4ccccc4)c4ccccc4)cc3)oc2c1)C(=O)NCc1ccccn1` [BC-163, 2-cyano-3-(2-(4-(diphenylamino)phenyl)benzofuran-6-yl)-N-(pyridin-2-ylmethyl)acrylamide]: the EC50 in assay [1] worked out at 1.76 µM; in assay [2], 2.23 µM; on amylin aggregates, 1.83 µM.
In the same order, the values of `N#CC(=Cc1ccc2oc(-c3ccc(N(c4ccccc4)c4ccccc4)cc3)cc2c1)C(=O)O` [BC-151, 2-cyano-3-(2-(4-(diphenylamino)phenyl)benzofuran-5-yl)acrylic acid] are 0.61 µM, 4.93 µM and 0.46 µM.
With `O=C(O)CN(CCN(CC(=O)O)CC(=O)O)CC(=O)O` [EDTA, reference compound], in assay [1], the “Change in bis-ANS fluorescence after addition of compound to zinc-independent Aβ42 aggregates” value was “no effect”. In assay [2], the EC50 turned out to be 46.1 µM.
As to `N#CC(C#N)=Cc1ccc2cc(-c3ccc(N(c4ccccc4)c4ccccc4)cc3)oc2c1` [BC-154, 2-((2-(4-(diphenylamino)phenyl)benzofuran-6-yl)methylene)malononitrile], the 50% effective concentration (EC50) on amylin aggregates amounted to 2.09 µM.
